Source: patent US9850256B2, “Antibacterial basic biaromatic derivatives with aminoalkoxy substitution” (priority 2014, dated 2017)
In brackets after ≈: the same amount, converted by molar mass.

Assays:
Experiment in all cases: Bacterial growth minimal inhibitory concentration (microdilution, cation-adjusted Mueller-Hinton Broth)
[1] = test system: S. aureus A798; type: cell-based, Staphylococcus aureus; conditions: multiply-resistant strain (methicillin- and quinolone-resistant); for MIC: Staphylococcus aureus, A798
Experimental: (§1) Minimal Inhibitory Concentrations (MICs; mg/L) were determined in cation-adjusted Mueller-Hinton Broth by a microdilution method following the description given in “Methods for Dilution Antimicrobial Susceptibility Tests for Bacteria that Grow Aerobically”, Approved standard, 7th ed., Clinical and Laboratory Standards Institute (CLSI) Document M7-A7, Wayne, Pa., USA (2006).
(§2) All Example compounds were tested against several Gram positive and Gram negative bacteria. […] Staphylococcus aureus A798 is a multiply-resistant strain (methicillin- and quinolone-resistant), Klebsiella pneumoniae T6474 is a multiply-resistant strain (penicillin-, cephalosporin- and in particular quinolone-resistant), while E. coli ATCC25922 and Pseudomonas aeruginosa ATCC 27853 are quinolone-sensitive strains.

[2] = test system: E. coli ATCC25922; type: cell-based; conditions: quinolone-sensitive strain; for MIC: Escherichia coli, ATCC25922
Experimental: as §1, §2

[3] = test system: K. pneumoniae T6474; type: cell-based, Klebsiella pneumoniae; conditions: multiply-resistant strain (penicillin-, cephalosporin- and quinolone-resistant); for MIC: Klebsiella pneumoniae, T6474
Experimental: as §1, §2

[4] = test system: P. aeruginosa ATCC 27853; type: cell-based, Pseudomonas aeruginosa; conditions: quinolone-sensitive strain; for MIC: Pseudomonas aeruginosa, ATCC27853
Experimental: as §1, §2

SMILES | MIC [1] [µg/mL] | MIC [2] [µg/mL] | MIC [3] [µg/mL] | MIC [4] [µg/mL] | MIC for S. aureus A798 [1] [µg/mL] | MIC for E. coli ATCC25922 [2] [µg/mL] | MIC for K. pneumoniae T6474 [3] [µg/mL] | MIC for P. aeruginosa ATCC 27853 [4] [µg/mL]
CC(CN)Oc1cccc(-c2cccc(CNCC[C@H]3CN(c4ccc5c(n4)NC(=O)CO5)C(=O)O3)c2)c1 (mixture of isomers) [Example 6, 6-((S)-5-(2-(((3′-(((RS)-1-aminopropan-2-yl)oxy)-[1,1′-biphenyl]-3-yl)methyl)amino)ethyl)-2-oxooxazolidin-3-yl)-2H-pyrido[3,2-b][1,4]oxazin-3(4H)-one] | 4 | 4 | 4 | 4 |  |  |  | 
O=C1COc2ccc(N3C[C@H](CCNCc4cccc(-c5cccc(OC6CCNC6)c5)c4)OC3=O)nc2N1 (mixture of isomers) [Example $103, 6-[(S)-2-oxo-5-(2-{[3′-((RS)-pyrrolidin-3-yloxy)-biphenyl-3-ylmethyl]-amino}-ethyl)-oxazolidin-3-yl]-4H-pyrido[3,2-b][1,4]oxazin-3-one] | 2 | 1 | 1 | 1 |  |  |  | 
O=C1COc2ccc(N3C[C@H](CCNCc4cccc(-c5cccc(OCC6CNCCO6)n5)c4)OC3=O)nc2N1.O=CO (mixture of isomers) [Example $109, 6-[(S)-5-(2-{3-[6-((RS)-1-morpholin-2-ylmethoxy)-pyridin-2-yl]-benzylamino}-ethyl)-2-oxo-oxazolidin-3-yl]-4H-pyrido[3,2-b][1,4]oxazin-3-one formate] | 0.5 | 1 | 2 | 1 |  |  |  | 
O=C1COc2ccc(N3C[C@H](CCNCc4cccc(-c5cccc(OCC6COCCN6)n5)c4)OC3=O)nc2N1.O=CO (mixture of isomers) [Example $110, 6-[(S)-5-(2-{3-[6-((RS)-1-morpholin-3-ylmethoxy)-pyridin-2-yl]-benzylamino}-ethyl)-2-oxo-oxazolidin-3-yl]-4H-pyrido[3,2-b][1,4]oxazin-3-one formate] | 0.25 | 1 | 2 | 2 |  |  |  | 
O=C1COc2ccc(N3C[C@H](CCNCc4cccc(-c5cccc(OC6CCCNC6)n5)c4)OC3=O)nc2N1.O=CO (mixture of isomers) [Example $111, 6-[(S)-2-oxo-5-(2-{3-[6-((RS)-piperidin-3-yloxy)-pyridin-2-yl]-benzylamino}-ethyl)-oxazolidin-3-yl]-4H-pyrido[3,2-b][1,4]oxazin-3-one formate] | 1 | 2 | 2 | 2 |  |  |  | 
CCN1CCC(Oc2cccc(-c3cccc(CNCC[C@H]4CN(c5ccc6c(n5)NC(=O)CO6)C(=O)O4)c3)n2)C1 (mixture of isomers) [Example $126, 6-[(S)-5-(2-{3-[6-((RS)-1-ethyl-pyrrolidin-3-yloxy)-pyridin-2-yl]-benzylamino}-ethyl)-2-oxo-oxazolidin-3-yl]-4H-pyrido[3,2-b][1,4]oxazin-3-one] | 0.5 | 1 | 2 | 2 |  |  |  | 
CC(C)N1CCC(Oc2cccc(-c3cccc(CNCC[C@H]4CN(c5ccc6c(n5)NC(=O)CO6)C(=O)O4)c3)n2)C1 (mixture of isomers) [Example $134, 6-[(S)-5-(2-{3-[6-((RS)-1-isopropyl-pyrrolidin-3-yloxy)-pyridin-2-yl]-benzylamino}-ethyl)-2-oxo-oxazolidin-3-yl]-4H-pyrido[3,2-b][1,4]oxazin-3-one] | 0.5 | 2 | 4 | 4 |  |  |  | 
C[C@H]1NC[C@H]1Oc1cccc(-c2cccc(CNCC[C@H]3CN(c4ccc5c(n4)NC(=O)CO5)C(=O)O3)c2)n1 (mixture of isomers) [Example $135, 6-[(S)-5-(2-{3-[6-((2RS,3RS)-2-methyl-azetidin-3-yloxy)-pyridin-2-yl]-benzylamino}-ethyl)-2-oxo-oxazolidin-3-yl]-4H-pyrido[3,2-b][1,4]oxazin-3-one] | 0.5 | 0.5 | 1 | 0.5 |  |  |  | 
CN1CCC[C@H](Oc2cccc(-c3cccc(CNCCC4CN(c5ccc6c(n5)NC(=O)CO6)C(=O)O4)c3)n2)C1 (mixture of isomers) [Example $142, 6-[(RS)-5-(2-{3-[6-((S)-1-methyl-piperidin-3-yloxy)-pyridin-2-yl]-benzylamino}-ethyl)-2-oxo-oxazolidin-3-yl]-4H-pyrido[3,2-b][1,4]oxazin-3-one] | 0.5 | 2 | 2 | 2 |  |  |  | 
C[C@@H]1[C@H](Oc2cccc(-c3cccc(CNCC[C@H]4CN(c5ccc6c(n5)NC(=O)CO6)C(=O)O4)c3)n2)CN1C (mixture of isomers) [Example $178, 6-[(S)-5-(2-{3-[6-((2RS,3RS)-1,2-dimethyl-azetidin-3-yloxy)-pyridin-2-yl]-benzylamino}-ethyl)-2-oxo-oxazolidin-3-yl]-4H-pyrido[3,2-b][1,4]oxazin-3-one] | 0.125 | 0.5 | 1 | 1 |  |  |  | 
NC1[C@H]2CN(CCOc3cccc(-c4cccc(CNCC[C@H]5CN(c6ccc7c(n6)NC(=O)CO7)C(=O)O5)c4)c3)C[C@@H]12 (mixture of isomers) [Example $117, 6-{(S)-5-[2-({3′-[2-((1R*,5S*,6RS)-6-amino-3-aza-bicyclo[3.1.0]hex-3-yl)-ethoxy]-biphenyl-3-ylmethyl}-amino)-ethyl]-2-oxo-oxazolidin-3-yl}-4H-pyrido[3,2-b][1,4]oxazin-3-one] |  |  |  |  | 1 | 1 | 1 | 4
C[C@@H]1NCC[C@@H]1Oc1cccc(-c2cccc(CNCC[C@H]3CN(c4ccc5c(n4)NC(=O)CO5)C(=O)O3)c2)n1 (relative stereo) [Example $172, 6-[(S)-5-(2-{3-[6-((2S*,3S*)-2-methyl-pyrrolidin-3-yloxy)-pyridin-2-yl]-benzylamino}-ethyl)-2-oxo-oxazolidin-3-yl]-4H-pyrido[3,2-b][1,4]oxazin-3-one] | 0.5 (≈ 0.918 µM) | 1 (≈ 1.84 µM) | 2 (≈ 3.67 µM) | 0.5 (≈ 0.918 µM) |  |  |  | 
C[C@@H]1CNC[C@H]1Oc1cccc(-c2cccc(CNCC[C@H]3CN(c4ccc5c(n4)NC(=O)CO5)C(=O)O3)c2)n1 (relative stereo) [Example $173, 6-[(S)-5-(2-{3-[6-((3S*,4R*)-4-methyl-pyrrolidin-3-yloxy)-pyridin-2-yl]-benzylamino}-ethyl)-2-oxo-oxazolidin-3-yl]-4H-pyrido[3,2-b][1,4]oxazin-3-one] | 0.5 (≈ 0.918 µM) | 1 (≈ 1.84 µM) | 2 (≈ 3.67 µM) | 1 (≈ 1.84 µM) |  |  |  | 
C[C@H]1[C@@H](Oc2cccc(-c3cccc(CNCC[C@H]4CN(c5ccc6c(n5)NC(=O)CO6)C(=O)O4)c3)n2)CCN1C (relative stereo) [Example $176, 6-[(S)-5-(2-{3-[6-((2S*,3S*)-1,2-dimethyl-pyrrolidin-3-yloxy)-pyridin-2-yl]-benzylamino}-ethyl)-2-oxo-oxazolidin-3-yl]-4H-pyrido[3,2-b][1,4]oxazin-3-one] | 0.25 (≈ 0.448 µM) | 2 (≈ 3.58 µM) | 2 (≈ 3.58 µM) | 2 (≈ 3.58 µM) |  |  |  | 
C[C@@H]1CN(C)C[C@H]1Oc1cccc(-c2cccc(CNCC[C@H]3CN(c4ccc5c(n4)NC(=O)CO5)C(=O)O3)c2)n1 (relative stereo) [Example $177, 6-[(S)-5-(2-{3-[6-((3S*,4R*)-1,4-dimethyl-pyrrolidin-3-yloxy)-pyridin-2-yl]-benzylamino}-ethyl)-2-oxo-oxazolidin-3-yl]-4H-pyrido[3,2-b][1,4]oxazin-3-one] | 0.5 (≈ 0.895 µM) | 2 (≈ 3.58 µM) | 4 (≈ 7.16 µM) | 4 (≈ 7.16 µM) |  |  |  | 
CO[C@H]1CNC[C@H]1Oc1cccc(-c2cccc(CNCC[C@H]3CN(c4ccc5c(n4)NC(=O)CO5)C(=O)O3)c2)n1 (relative stereo) [Example $184, (3R*,4S*)-6-[(S)-5-(2-{3-[6-(4-methoxy-pyrrolidin-3-yloxy)-pyridin-2-yl]-benzylamino}-ethyl)-2-oxo-oxazolidin-3-yl]-4H-pyrido[3,2-b][1,4]oxazin-3-one] | 8 (≈ 14.3 µM) | 4 (≈ 7.14 µM) | 8 (≈ 14.3 µM) | 2 (≈ 3.57 µM) |  |  |  | 
N[C@@H]1CC[C@H](Oc2cccc(-c3cccc(CNCC[C@H]4CN(c5ccc6c(n5)NC(=O)CO6)C(=O)O4)c3)c2)C1 [$183, 6-[(S)-5-(2-{[3′-((1S,3R)-3-amino-cyclopentyloxy)-biphenyl-3-ylmethyl]-amino}-ethyl)-2-oxo-oxazolidin-3-yl]-4H-pyrido[3,2-b][1,4]oxazin-3-one] | 2 (≈ 3.68 µM) | 4 (≈ 7.36 µM) | 4 (≈ 7.36 µM) | 4 (≈ 7.36 µM) |  |  |  | 
NCCOc1cccc(-c2cccc(CNCC[C@H]3CN(c4ccc5c(n4)NC(=O)CO5)C(=O)O3)c2)c1 [Example 1, 6-[(S)-5-(2-{[3′-(2-amino-ethoxy)-biphenyl-3-ylmethyl]-amino}-ethyl)-2-oxo-oxazolidin-3-yl]-4H-pyrido[3,2-b][1,4]oxazin-3-one] | 2 (≈ 3.97 µM) | 1 (≈ 1.99 µM) | 1 (≈ 1.99 µM) | 2 (≈ 3.97 µM) |  |  |  | 
CN(C)CCOc1cccc(-c2cccc(CNCC[C@H]3CN(c4ccc5c(n4)NC(=O)CO5)C(=O)O3)c2)c1 [Example 2, 6-[(S)-5-(2-{[3′-(2-dimethylamino-ethoxy)-biphenyl-3-ylmethyl]-amino}-ethyl)-2-oxo-oxazolidin-3-yl]-4H-pyrido[3,2-b][1,4]oxazin-3-one] | 0.5 (≈ 0.941 µM) | 2 (≈ 3.76 µM) | 2 (≈ 3.76 µM) | 4 (≈ 7.52 µM) |  |  |  | 
